Laboratory results published in patent US5364844A, “Renin-inhibitory oligopeptides, their preparation and use” (Sankyo Company, Limited, priority 1988, dated 1994).

target: T1, human renin (Homo sapiens, UniProt P00797); assay: Inhibition of human renin activity (procedure of Kokubu et al.); format: biochemical; conditions: sheep angiotensinogen, pH 7.3, 10 minutes at 37° C.; mean of 3 or 4 experiments
T1 sequence (P00797 67-406): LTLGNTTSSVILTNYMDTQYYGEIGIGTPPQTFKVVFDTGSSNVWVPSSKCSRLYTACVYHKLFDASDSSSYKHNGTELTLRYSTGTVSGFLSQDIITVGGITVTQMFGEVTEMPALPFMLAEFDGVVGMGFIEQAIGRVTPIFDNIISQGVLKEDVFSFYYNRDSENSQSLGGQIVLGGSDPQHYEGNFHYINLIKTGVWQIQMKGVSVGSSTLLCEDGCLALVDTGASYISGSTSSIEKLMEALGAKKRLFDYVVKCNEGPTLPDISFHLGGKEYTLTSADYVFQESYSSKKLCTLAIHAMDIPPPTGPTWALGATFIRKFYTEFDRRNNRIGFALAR
Experimental: The ability of various compounds of the invention to inhibit the activity of renin was determined according to the following method, which follows essentially the procedure of Kokubu et al. [Hypertension, 5, 191-197 (1983)].
Specifically, each test compound was dissolved in 60% v/v aqueous ethanol. Human renin activity in the presence and absence of each compound was measured using sheep angiotensinogen. The total volume of 1 ml of assay mixture contained 0.1 mole/liter phosphate buffer (pH 7.3), human renin (equivalent to 0.5 ng angiotensin I per ml per minute), sheep angiotensinogen (equivalent to 200 ng angiotensin I), […], 6% v/v ethanol and angiotensinase inhibitors (10 mmole/liter sodium ethylenediaminetetraacetate and 3.4 mmole/liter 8-hydroxyquinoline). The mixture was allowed to react for 10 minutes at 37° C., and then the reaction was stopped by placing the reaction tube in a boiling water bath for 5 minutes. The mixture was then centrifuged and the supernatant (0.05-0.1 ml) was used to assay remaining angiotensin I.
An identical experiment was carried out, as a control, except that the test compound was omitted. From the values obtained were calculated the % inhibition of renin activity achieved by each test compound. The results are shown in the following Table 9, in which the compounds of the invention are identified by the numbers of the Examples given hereafter in which are described their preparation. The values given are the mean of 3 or 4 experiments.

SMILES	Inhibitory Activity (%) Against Human Renin [%]
CCC(C)CNC(=O)[C@@H](C[C@H](O)[C@H](CC(C)C)NC(=O)[C@H](Cc1cscn1)NC(=O)[C@H](Cc1cccc2ccccc12)NC(=O)OC(C)(C)C)C(C)(C)O (mixture of isomers) [Example 7, (2S, 4S, 5S)-5-{N-[N-(t-Butoxycarbonyl)-3-(1-naphthyl)-L-alanyl]-3-(4-thiazolyl)-L-alanyl}amino-4-hydroxy-2-(1-hydroxy-1-methylethyl)-7-methyl-N-[2(RS)-methylbutyl]octanamide]	98.2
CCC(C)CNC(=O)[C@@H](C[C@H](O)[C@H](CC(C)C)NC(=O)[C@H](Cc1cscn1)NC(=O)[C@@H](CC(=O)N(C)C1CCCCC1)Cc1cccc2ccccc12)C(C)(C)O (mixture of isomers) [Example 8, (2S, 4S, 5S)-5-{N-[2(R)-(1-Naphthylmethyl)-3-(N-cyclohexyl-N-methylaminocarbonyl)propionyl]-3-(4-thiazolyl)-L-alanyl}amino-4-hydroxy-2-(1-hydroxy-1-methylethyl)-7-methyl-N-[2-(RS)-methylbutyl]octanamide]	97.4
CC[C@H](C)CNC(=O)[C@@H](C[C@H](O)[C@H](CC1CCCCC1)NC(=O)[C@H](Cc1cscn1)NC(=O)[C@H](Cc1cccc2ccccc12)NC(=O)CN1CCOCC1)C(C)(C)O [Example 2, (2S, 4S, 5S)-5-{N-[N-Morpholinoacetyl-3-(1-naphthyl)-L-alanyl]-3-(4-thiazolyl)-L-alanyl}amino-6-cyclohexyl-4-hydroxy-2-(1-hydroxy-1-methylethyl)-N-[2(S)-methylbutyl]hexanamide]	96.3
CC[C@H](C)CNC(=O)[C@@H](C[C@H](O)[C@H](CC1CCCCC1)NC(=O)[C@H](Cc1cscn1)NC(=O)[C@H](Cc1ccccc1)NC(=O)CN1CCOCC1)C(C)(C)O [Example 3, (2S, 4S, 5S)-S-{N-[N-Morpholinoacetyl-L-phenylalanyl]-3-(4-thiazolyl)-L-alanyl}amino-6-cyclohexyl-4-hydroxy-2-(1-hydroxy-1-methylethyl)-N-[2(S)-methylbutyl]hexanamide]	96.7
CC[C@H](C)CNC(=O)[C@@H](C[C@H](O)[C@H](CC1CCCCC1)NC(=O)[C@H](Cc1cscn1)NC(=O)[C@@H](CC(=O)N1CCOCC1)Cc1ccccc1)C(C)(C)O [Example 5, (2S, 4S, 5S)-5-{N-[2(R)-Benzyl-3-(morpholinocarbonyl)propionyl]-3-(4-thiazolyl)-L-alanyl}amino-6-cyclohexyl-4-hydroxy-2-(1-hydroxy-1-methylethyl)-N-[2 (S)-methylbutyl]hexanamide]	92.2

Now from value to compound:

Inhibitory Activity (%) Against Human Renin [%]	SMILES
96.8	CC[C@H](C)CNC(=O)[C@@H](C[C@H](O)[C@H](CC1CCCCC1)NC(=O)[C@H](Cc1cscn1)NC(=O)[C@@H](CC(=O)N1CCOCC1)Cc1cccc2ccccc12)C(C)(C)O [Example 4, (2S, 4S, 5S)-5-{N-[2(R)-(1-Naphthylmethyl)-3-(morpholinocarbonyl)propionyl]-3-(4-thiazolyl)-L-alanyl}amino-6-cyclohexyl-4-hydroxy-2-(1-hydroxy-1-methylethyl)-N-[2(S)-methylbutyl]hexanamide]
90.9	CNC(=O)[C@@H](C[C@H](O)[C@H](CC1CCCCC1)NC(=O)[C@H](Cc1cscn1)NC(=O)[C@@H](CC(=O)N1CCOCC1)Cc1ccccc1)C(C)(C)O [Example 9]
